# “Also recorded” adds a separate entry of the source. Read-outs that look alike come from different tables or passages of the source. Where a SMILES comes first, the peptide text is derived from it.
# Columns and labels:
# E. coli = experiment: Antimicrobial activity after pre-treatment of peptide with Proteinase-K; assay type: cell-based; conditions: 12.5 μM peptide pre-treated with 20 ng ProtK for 2 hours at 37° C., 18 hours
# Description: The susceptibility of OMN6/CecA to proteolytic degradation was assessed and the effects of stability on activity were determined. Native peptide-CecA and engineered peptide-OMN6 were incubated with 20 ng of Proteinase-K (ProtK) at 37° C. for two hours (left bars and right bars, respectively). E. coli at 500,000 CFU/ml were incubated for 18 hours with either CecA or OMN6 pretreated with ProtK. After the incubation, bacterial survival was determined via absorption at OD600 nm and via CFU count on agar plates.
# GFPuv E. coli = experiment: GFP leakage from lysed GFPuv E. coli; assay type: cell-based; conditions: 50 μM for 30 minutes
# Description: In order to determine and evaluate the Mechanism of Action (MOA) by which the peptides achieve the remarkable antimicrobial effect they exert, the following experiments were conducted: GFPuv E. coli bacteria are a strain that upon induction expresses green fluorescent protein (GFP). The GFP fluorescence can be detected at 395/509 nm, while live bacteria can be detected via absorbance at 600 nm (OD600).
# GFPuv E. coli bacteria ubiquitously express GFP in their cytoplasm upon induction and the fluorescent protein can be detected and visualized. […]
# In another experiment, bacteria were grown and induced to express GFP. […] The supernatant (sup) from the two experiment groups CTRL and OMN6, was separated from the pellet and analyzed for the level of fluorescence units (FU) (see FIG. 4B). […] Fluorescence was detected only inside the bacteria which were concentrated in the pellet at the bottom of the tube. […] Both supernatants were probed for the presence of bacteria via absorbance at 600 nm and both supernatants were completely void of bacteria cells (data not shown). […] Thus, in the CTRL group, where the bacteria are intact, no fluorescence is detected in the sup while in the sup from the group treated with OMN6, the GFP that leaked out of the lysed cells is detected.
# [1] = Preliminary IP safety in mice; assay type: in vivo
# Description: IP administration of OMN6: OMN6 was administered IP to mice in order to evaluate and quantitate any toxic effects if present. OMN6 peptide was administered via intraperitoneal injection according to concentrations and groups detailed in Table 10.
# Mice used in this experiment: Outbred Hsd: ICR (CD-1®)—weight 18-20 g. Saline solution (0.9% NaCl) supplemented with 4 mM C2H3NaO2 (sodium acetate) as sham treatment, or OMN6 dissolved in saline were administered as specified in […] A total volume of 100 μl was administered to each animal.
# Mortality of mice in experiment group was monitored in comparison to a Sham (CTRL) group. Food and water consumption, post treatment, was monitored by individual weight measurements once every two days. At the end of the experiment, blood was taken from all animals, and a 200 μl volume of complete blood was separated and plasma was analyzed for erythrocyte hemolysis.
# Experimental Map: • 1. Mice (six per group) were given a single-dose administration on day 1, according to group specification (Table 10). Food and water consumption (weight analysis) along with mortality of mice in all groups were monitored for 3 days post treatment. At the end of the four day trial, the animals were sacrificed. • 2. Free Hgb (hemoglobin) assay was performed on day 4, on all samples from all groups, for erythrocyte hemolysis analysis. • 3. Water/food availability, temperature and other conditions remained unchanged between the groups for the entire four day trial. • 4. The Erythrocyte hemolysis analysis was performed via hemoglobin assay kit (Sigma-Aldrich, 3 Plaut St. Rehovot, Israel).
# A. baumannii BAA-1793 = assay type: cell-based, Acinetobacter baumannii; conditions: FIG. 7
# Description: In order to determine the Minimal Bactericidal Concentration (MBC) values of the peptides, colony formation of various bacteria strains was monitored and determined after treatment with the peptides of the invention. Multi-Drug Resistant A. baumannii bacteria were cultured with or without OMN6 in increasing concentrations, as is detailed in FIG. 6 and Example 6. Immediately afterwards, samples of each experimental group were diluted to 1×10^4 to 1×10^6 as necessary, and further, the samples were plated on appropriate medium-agar plates. All the plates were incubated at 37° C. for 24-48 hours. Colonies were counted and CFU/ml in the original sample, prior to plating, were calculated and determined. An example of the plates, after incubation, is presented in FIG. 7 where the plate on the left side of the image is the CTRL sample treated with DDW and in the right side of the image increasing concentrations of OMN6 are presented, as specified therein.
# The experimental system and parameters described here were used to determine the MBC values of OMN2, OMN6, OMN7 and OMN11 on various bacteria strains with and without the supplementation of 10% FBS (Table 6 and Table 8).
# [2] = IP single dose 16 mg/kg, four-day experiment
smiles,measurement,setting,value
CC[C@H](C)[C@H](NC(=O)CNC(=O)[C@H](CC(=O)O)NC(=O)[C@H](CCCNC(=N)N)NC(=O)[C@@H](NC(=O)[C@H](CC(N)=O)NC(=O)[C@H](CCC(N)=O)NC(=O)CNC(=O)[C@@H](NC(=O)[C@H](CCCCN)NC(=O)[C@H](CCC(=O)O)NC(=O)[C@@H](NC(=O)[C@H](CCCCN)NC(=O)[C@H](CCCCN)NC(=O)[C@H](Cc1ccccc1)NC(=O)[C@H](CC(C)C)NC(=O)[C@H](CCCCN)NC(=O)[C@H](Cc1c[nH]c2ccccc12)NC(=O)[C@H](CCCCN)NC(=O)[C@H](CS)NC(=O)[C@@H](N)CCSC)[C@@H](C)CC)C(C)C)[C@@H](C)CC)C(=O)N[C@H](C(=O)N[C@@H](CCCCN)C(=O)N[C@@H](C)C(=O)NCC(=O)N1CCC[C@H]1C(=O)N[C@@H](C)C(=O)N[C@H](C(=O)N[C@@H](C)C(=O)N[C@H](C(=O)N[C@H](C(=O)NCC(=O)N[C@@H](CCC(N)=O)C(=O)N[C@@H](C)C(=O)N[C@H](C(=O)N[C@@H](CCC(N)=O)C(=O)N[C@H](C(=O)N[C@@H](C)C(=O)N[C@@H](CCCCN)C(=O)N[C@@H](CS)C(N)=O)[C@@H](C)CC)[C@@H](C)O)C(C)C)C(C)C)C(C)C)[C@@H](C)CC [OMN6] (H-MCKWKLFKKIEKVGQNIRDGIIKAGPAVAVVGQATQIAKC-NH2; N-terminus and C-terminus assumed),Bacterial survival/growth as percent of CTRL group,E. coli,less than 10%
same,GFP leakage / lysis of bacteria,GFPuv E. coli,massive leaking of GFP; also recorded: extensive lysis
same,Histological analysis,[1]; IP single dose 16 mg/kg (data not shown),No evidence of pathological changes or aberrations
same,Hemolysis of erythrocytes (Free Hgb assay),"[1]; IP single dose 16 mg/kg, day 4",No evidence of hemolysis
same,"Clinical signs (diarrhea, bloody diarrhea, stand-on-end hair, apathy or restlessness)",[1]; [2],not observed
same,Mortality,[1]; [2],not observed
same,Toxic or otherwise adverse effects,[1]; [2],does not exert any toxic or otherwise adverse effects
same,Weight-loss,[1]; [2],not observed
same,Colony formation of Multi-Drug Resistant A. baumannii after plating,A. baumannii BAA-1793; OMN6 0.62 μM and 1.25 μM,no inhibition of growth
same,Colony formation of Multi-Drug Resistant A. baumannii after plating,"A. baumannii BAA-1793; OMN6 2.5 μM, 5 μM and 10 μM",void of colonies

# Reference: patent US20200399329A1, “ANTIMICROBIAL PEPTIDES” (priority 2015, published 2020)
